Measurements: US20230049952A1, “METHODS AND COMPOUNDS FOR RESTORING MUTANT P53 FUNCTION” (PMV Pharmaceuticals, Inc., priority 2020, published 2023)
Like-named read-outs stand apart in the source and are kept apart here.

What was measured:
[1] = tested on: human hepatocytes; settings: male, 72 h, 100 μM
[2] = metabolic stability in cryopreserved hepatocytes; assay type: in vitro ADME, cynomolgus monkey; settings: Monkey cryopreserved hepatocytes
Experimental: (§1) Mixed-gender human cryopreserved hepatocytes, male Sprague-Dawley rat cryopreserved hepatocytes, male CD-1 mouse cryopreserved hepatocytes, male beagle dog cryopreserved hepatocytes, and male cynomolgus monkey cryopreserved hepatocytes were used for the study. The hepatocytes were thawed, pooled into Krebs Henseleit buffer (KHB, pH 7.4), and kept on ice prior to the experiments. […] Each experiment was performed in triplicate. The final DMSO content in the incubation mixture was ≤0.1%. […] Positive controls, testosterone (1 μM) and 7-hydroxycoumarin (7-HC) (100 μM), were performed in parallel to confirm the activity of the hepatocytes. […] Aliquots of testosterone were withdrawn (n=1) at 0, 5, 15, 30, 60, and 120 minutes. Aliquots of 7-HC were withdrawn (n=1) at 0 and 15 minutes. The reaction was immediately terminated by adding three volumes of ice-cold MeCN containing IS. The samples were then mixed and spun by centrifuge to precipitate proteins. An aliquot of the supernatant was then diluted with water. Calibration standards for the analysis of 7-HC metabolites were prepared in matched matrix. […] All samples were analyzed by LC-MS/MS. The peak area response ratio (PARR) vs. IS was compared to the PARR at time 0 to determine the percent remaining at each time point. Half-lives and clearance values were calculated using GraphPad software, fitting to a single-phase exponential decay equation.
(§2) Mixed-gender human cryopreserved hepatocytes, male Sprague-Dawley rat cryopreserved hepatocytes, male CD-1 mouse cryopreserved hepatocytes, male beagle dog cryopreserved hepatocytes, and male cynomolgus monkey cryopreserved hepatocytes were thawed and pooled into KHB buffer (pH 7.4) and kept on ice prior to the experiments. […] Each experiment was performed in triplicate. The final DMSO content in the incubation mixture was ≤0.1%.
(§3) Positive controls, testosterone (1 μM) and 7-hydroxycoumarin (7-HC) (100 μM), were performed in parallel to confirm the activity of the hepatocytes. […] Aliquots of testosterone were withdrawn (n=1) at 0, 5, 15, 30, 60, and 120 minutes. Aliquots of 7-HC were withdrawn (n=1) at 0 and 15 minutes. The reaction was immediately terminated by adding three volumes of ice-cold MeCN containing IS. The samples were then mixed and spun by centrifuge to precipitate proteins. An aliquot of the supernatant was then diluted with water. Calibration standards for the analysis of 7-HC metabolites were prepared in matched matrix. […] All samples were analyzed by LC-MS/MS. Analytical conditions are outlined below. The peak area response ratio (PARR) vs. IS was compared to the PARR at time 0 to determine the percent remaining at each time point. Half-lives and clearance values were calculated using GraphPad software, fitting to a single-phase exponential decay equation.

[3] = metabolic stability in cryopreserved hepatocytes; assay type: in vitro ADME, mouse; settings: Mouse cryopreserved hepatocytes
Experimental: as §1, §2, §3

[4] = tested on: human hepatocytes; test: metabolic stability in cryopreserved hepatocytes; assay type: in vitro ADME; settings: Human cryopreserved hepatocytes; positive control, 1 μM
Experimental: as §1, §2, §3

[5] = metabolic stability in cryopreserved hepatocytes; assay type: in vitro ADME, human; settings: both sexes, pH 7.4; Human cryopreserved hepatocytes; positive control 1 μM
Experimental: as §1, §2, §3

[6] = metabolic stability in cryopreserved hepatocytes; assay type: in vitro ADME, dog; settings: Dog cryopreserved hepatocytes
Experimental: Mixed-gender human cryopreserved hepatocytes, male Sprague-Dawley rat cryopreserved hepatocytes, male CD-1 mouse cryopreserved hepatocytes, male beagle dog cryopreserved hepatocytes, and male cynomolgus monkey cryopreserved hepatocytes were used for the study. The hepatocytes were thawed, pooled into Krebs Henseleit buffer (KHB, pH 7.4), and kept on ice prior to the experiments. […] Each experiment was performed in triplicate. The final DMSO content in the incubation mixture was ≤0.1%. […] Aliquots of testosterone were withdrawn (n=1) at 0, 5, 15, 30, 60, and 120 minutes. Aliquots of 7-HC were withdrawn (n=1) at 0 and 15 minutes. The reaction was immediately terminated by adding three volumes of ice-cold MeCN containing IS. The samples were then mixed and spun by centrifuge to precipitate proteins. An aliquot of the supernatant was then diluted with water. Calibration standards for the analysis of 7-HC metabolites were prepared in matched matrix. […] All samples were analyzed by LC-MS/MS. The peak area response ratio (PARR) vs. IS was compared to the PARR at time 0 to determine the percent remaining at each time point. Half-lives and clearance values were calculated using GraphPad software, fitting to a single-phase exponential decay equation.
as §2
Aliquots of testosterone were withdrawn (n=1) at 0, 5, 15, 30, 60, and 120 minutes. Aliquots of 7-HC were withdrawn (n=1) at 0 and 15 minutes. The reaction was immediately terminated by adding three volumes of ice-cold MeCN containing IS. The samples were then mixed and spun by centrifuge to precipitate proteins. An aliquot of the supernatant was then diluted with water. Calibration standards for the analysis of 7-HC metabolites were prepared in matched matrix. […] All samples were analyzed by LC-MS/MS. Analytical conditions are outlined below. The peak area response ratio (PARR) vs. IS was compared to the PARR at time 0 to determine the percent remaining at each time point. Half-lives and clearance values were calculated using GraphPad software, fitting to a single-phase exponential decay equation.

[7] = metabolic stability in cryopreserved hepatocytes; assay type: in vitro ADME, rat; settings: Rat cryopreserved hepatocytes
Experimental: as §1, §2, §3

[8] = molecular target: T1, BCRP (Homo sapiens, UniProt Q9UNQ0); test: BCRP substrate assessment, BCRP-MDCK monolayers; assay type: in vitro ADME
T1 sequence (Q9UNQ0 1-655): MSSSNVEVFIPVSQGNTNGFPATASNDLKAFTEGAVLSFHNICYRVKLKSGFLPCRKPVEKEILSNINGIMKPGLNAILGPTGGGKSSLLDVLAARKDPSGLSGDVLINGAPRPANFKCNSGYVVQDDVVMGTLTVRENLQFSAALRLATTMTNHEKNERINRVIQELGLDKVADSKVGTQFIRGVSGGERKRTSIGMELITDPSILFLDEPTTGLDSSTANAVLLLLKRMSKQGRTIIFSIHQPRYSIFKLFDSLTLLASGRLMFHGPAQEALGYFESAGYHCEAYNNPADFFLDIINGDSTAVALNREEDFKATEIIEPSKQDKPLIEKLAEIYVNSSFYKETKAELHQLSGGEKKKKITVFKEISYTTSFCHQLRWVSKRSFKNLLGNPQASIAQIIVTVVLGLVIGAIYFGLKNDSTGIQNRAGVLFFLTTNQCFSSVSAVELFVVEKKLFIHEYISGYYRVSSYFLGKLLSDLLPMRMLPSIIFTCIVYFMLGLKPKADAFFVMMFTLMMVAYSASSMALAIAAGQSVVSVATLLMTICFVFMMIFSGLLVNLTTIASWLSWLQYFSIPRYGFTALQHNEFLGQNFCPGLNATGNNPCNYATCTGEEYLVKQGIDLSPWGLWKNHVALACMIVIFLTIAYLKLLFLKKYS
Experimental: (§4) BCRP-MDCK cell monolayers were prepared at Absorption Systems. […] Each determination was performed in duplicate.

[9] = tested on: BCRP; test: cell batch quality control, BCRP-MDCK monolayers; assay type: in vitro ADME; settings: dog; BCRP-MDCK cell batch QC; passage 23
Experimental: as §4

[10] = molecular target: T1, BCRP; test: in vitro
[11] = molecular target: T1, BCRP; test: BCRP substrate assessment, Caco-2 monolayers; assay type: in vitro ADME; parameters: host or cells: Caco-2 (clone C2BBe1)
[12] = male, CD-1, pH 7.4, positive control 1 μM
[13] = male, beagle, pH 7.4, positive control 1 μM

CN(C)CCCN1c2ccccc2Sc2ccc(Cl)cc21 [Chlorpromazine, chlorpromazine]
% MTS Absorbance Relative to Vehicle Control [1]: 59.4% | Formazan Absorbance (n = 6) Mean [1]: 0.174

C[C@]12CC[C@H]3[C@@H](CCC4=CC(=O)CC[C@@]43C)[C@@H]1CC[C@@H]2O [testosterone]
half-life ([2]; positive control 1 μM): 3.08 min | CLint ([2]; positive control, 1 μM): 0.150 mL/min/10^6 cells | half-life ([2]; positive control, 1 μM): 3.08 min | hepatocyte CLint ([2]; male, pH 7.4, positive control 1 μM): 150 µL/min/1e6 cells | CLint ([3]; positive control, 1 μM): 0.181 mL/min/10^6 cells | half-life [3, 12]: 2.55 min | hepatocyte CLint [3, 12]: 181 µL/min/1e6 cells | CLint [4]: 0.108 mL/min/10^6 cells | half-life [5]: 4.28 min | hepatocyte CLint [5]: 108 µL/min/1e6 cells | CLint ([6]; positive control, 1 μM): 0.0672 mL/min/10^6 cells | half-life [6, 13]: 6.88 min | hepatocyte CLint [6, 13]: 67.2 µL/min/1e6 cells | CLint ([7]; positive control, 1 μM): 0.405 mL/min/10^6 cells | half-life ([7]; positive control, 1 μM): 1.14 min | hepatocyte CLint ([7]; male, Sprague-Dawley, pH 7.4, positive control 1 μM): 405 µL/min/1e6 cells | half-life ([7]; male, Sprague-Dawley, pH 7.4, positive control 1 μM, read-out: Half-life): 1.14 min

Nc1nc(Cl)nc2c1ncn2[C@H]1C[C@H](O)[C@@H](CO)O1 [Cladribine, cladribine]
BCRP Substrate Classification ([8]; BCRP-MDCK, Cladribine): Positive | recovery at 120 min ([8]; dog, pH 7.4, BCRP-MDCK, Cladribine, A-to-B): 91.3% | Papp A→B at 120 min ([8]; dog, pH 7.4, BCRP-MDCK, Cladribine, A-to-B, read-out: Papp AVG): 0.211 ×10⁻⁶ cm/s | Papp A→B at 120 min ([8]; dog, pH 7.4, BCRP-MDCK, Cladribine, A-to-B, read-out: Papp R1): 0.142 ×10⁻⁶ cm/s | Papp A→B at 120 min ([8]; dog, pH 7.4, BCRP-MDCK, Cladribine, A-to-B, read-out: Papp R2): 0.28 ×10⁻⁶ cm/s | recovery at 120 min ([8]; dog, pH 7.4, BCRP-MDCK, Cladribine, B-to-A): 92.9% | Papp B→A at 120 min ([8]; dog, pH 7.4, BCRP-MDCK, Cladribine, B-to-A, read-out: Papp AVG): 17.6 ×10⁻⁶ cm/s | Papp B→A at 120 min ([8]; dog, pH 7.4, BCRP-MDCK, Cladribine, B-to-A, read-out: Papp R1): 15.6 ×10⁻⁶ cm/s | Papp B→A at 120 min ([8]; dog, pH 7.4, BCRP-MDCK, Cladribine, B-to-A, read-out: Papp R2): 19.6 ×10⁻⁶ cm/s | recovery at 120 min ([8]; dog, pH 7.4, with Ko143 0.5 µM, BCRP-MDCK, Cladribine + 0.5 μM Ko143, A-to-B): 93.5% | recovery at 120 min ([8]; dog, pH 7.4, with Ko143 0.5 µM, BCRP-MDCK, Cladribine + 0.5 μM Ko143, B-to-A): 107% | efflux ratio at 120 min ([8]; dog, pH 7.4, BCRP-MDCK, Cladribine): 83.3 | Papp A→B [9]: 0.136 ×10⁻⁶ cm/s | Papp B→A [9]: 18.4 ×10⁻⁶ cm/s | efflux ratio [9]: 135 | efflux ratio ([10]; Caco-2, pH 7.4): 32 | recovery ([10]; Caco-2, pH 7.4, % Recovery, IC50 determination, Caco-2, Cladribine alone, B-A): 103% | Papp A→B ([10]; Caco-2, pH 7.4, Papp AVG, Caco-2, Cladribine alone, A-to-B): 0.58 ×10⁻⁶ cm/s | Papp B→A ([10]; Caco-2, pH 7.4, Papp AVG, Caco-2, Cladribine alone, B-to-A): 18.5 ×10⁻⁶ cm/s | Papp B→A ([10]; Caco-2, pH 7.4, Papp AVG, IC50 determination, Caco-2, Cladribine alone, B-A): 14.6 ×10⁻⁶ cm/s | Papp A→B ([10]; Caco-2, pH 7.4, Papp R1, Caco-2, Cladribine alone, A-to-B): 0.681 ×10⁻⁶ cm/s | Papp B→A ([10]; Caco-2, pH 7.4, Papp R1, Caco-2, Cladribine alone, B-to-A): 17.7 ×10⁻⁶ cm/s | Papp B→A ([10]; Caco-2, pH 7.4, Papp R1, IC50 determination, Caco-2, Cladribine alone, B-A): 17.8 ×10⁻⁶ cm/s | Papp A→B ([10]; Caco-2, pH 7.4, Papp R2, Caco-2, Cladribine alone, A-to-B): 0.478 ×10⁻⁶ cm/s | Papp B→A ([10]; Caco-2, pH 7.4, Papp R2, Caco-2, Cladribine alone, B-to-A): 19.3 ×10⁻⁶ cm/s | Papp B→A ([10]; Caco-2, pH 7.4, Papp R2, IC50 determination, Caco-2, Cladribine alone, B-A): 11.5 ×10⁻⁶ cm/s | recovery ([10]; Caco-2, pH 7.4, Recovery (%), Caco-2, Cladribine alone, A-to-B): 80.5% | recovery ([10]; Caco-2, pH 7.4, Recovery (%), Caco-2, Cladribine alone, B-to-A): 85.6% | BCRP Substrate Classification ([11]; Caco-2, Cladribine): Positive | recovery at 120 min ([11]; human, Caco-2, pH 7.4, Caco-2, Cladribine, A-to-B): 80.5% | Papp A→B at 120 min ([11]; human, Caco-2, pH 7.4, Caco-2, Cladribine, A-to-B, read-out: Papp AVG): 0.58 ×10⁻⁶ cm/s | Papp A→B at 120 min ([11]; human, Caco-2, pH 7.4, Caco-2, Cladribine, A-to-B, read-out: Papp R1): 0.681 ×10⁻⁶ cm/s | Papp A→B at 120 min ([11]; human, Caco-2, pH 7.4, Caco-2, Cladribine, A-to-B, read-out: Papp R2): 0.478 ×10⁻⁶ cm/s | recovery at 120 min ([11]; human, Caco-2, pH 7.4, Caco-2, Cladribine, B-to-A): 85.6% | Papp B→A at 120 min ([11]; human, Caco-2, pH 7.4, Caco-2, Cladribine, B-to-A, read-out: Papp AVG): 18.5 ×10⁻⁶ cm/s | Papp B→A at 120 min ([11]; human, Caco-2, pH 7.4, Caco-2, Cladribine, B-to-A, read-out: Papp R1): 17.7 ×10⁻⁶ cm/s | Papp B→A at 120 min ([11]; human, Caco-2, pH 7.4, Caco-2, Cladribine, B-to-A, read-out: Papp R2): 19.3 ×10⁻⁶ cm/s | recovery at 120 min ([11]; human, Caco-2, pH 7.4, with Ko143 0.5 µM, Caco-2, Cladribine + 0.5 μM Ko143, A-to-B): 89.8% | recovery at 120 min ([11]; human, Caco-2, pH 7.4, with Ko143 0.5 µM, Caco-2, Cladribine + 0.5 μM Ko143, B-to-A): 87.7% | efflux ratio at 120 min ([11]; human, pH 7.4, Caco-2, Cladribine): 32
